Target: T1, human TRPC6 (Homo sapiens, UniProt Q9Y210)
T1 construct: expressed in transfected cells
T1 sequence (Q9Y210 1-931): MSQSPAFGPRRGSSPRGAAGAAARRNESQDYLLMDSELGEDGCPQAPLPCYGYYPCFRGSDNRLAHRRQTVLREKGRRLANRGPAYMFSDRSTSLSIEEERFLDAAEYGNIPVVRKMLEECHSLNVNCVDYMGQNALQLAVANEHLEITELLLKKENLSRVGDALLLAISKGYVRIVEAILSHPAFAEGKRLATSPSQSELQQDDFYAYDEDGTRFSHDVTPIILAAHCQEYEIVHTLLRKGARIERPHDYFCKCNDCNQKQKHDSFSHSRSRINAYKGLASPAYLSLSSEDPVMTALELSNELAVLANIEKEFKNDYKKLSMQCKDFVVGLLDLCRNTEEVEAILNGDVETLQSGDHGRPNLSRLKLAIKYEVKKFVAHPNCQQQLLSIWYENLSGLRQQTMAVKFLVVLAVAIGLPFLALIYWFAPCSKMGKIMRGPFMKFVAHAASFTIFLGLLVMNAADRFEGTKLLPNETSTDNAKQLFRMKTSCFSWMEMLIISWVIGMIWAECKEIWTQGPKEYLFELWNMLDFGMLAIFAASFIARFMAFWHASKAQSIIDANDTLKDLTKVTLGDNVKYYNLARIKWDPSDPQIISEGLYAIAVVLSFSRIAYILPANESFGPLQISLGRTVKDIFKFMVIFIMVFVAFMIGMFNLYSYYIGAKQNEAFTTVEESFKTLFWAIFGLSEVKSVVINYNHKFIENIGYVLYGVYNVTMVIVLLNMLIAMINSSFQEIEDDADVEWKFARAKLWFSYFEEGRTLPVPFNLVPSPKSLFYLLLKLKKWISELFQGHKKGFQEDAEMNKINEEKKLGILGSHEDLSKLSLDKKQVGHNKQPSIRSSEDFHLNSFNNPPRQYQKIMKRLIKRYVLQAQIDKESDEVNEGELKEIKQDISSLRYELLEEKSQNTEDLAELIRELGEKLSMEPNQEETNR
Assay: High throughput screening assay: Fluo4/AM calcium fluorescence in HEK293/TREx cells expressing human TRPC6, agonist GSK1702934A (single concentration 10 μM and IC50 curves)
Type: cell-based
Settings: antagonist effect against human TRPC6, 7 concentrations 20 μM to 0.027 μM, triplicate
Excerpt: High Throughput Screening Assay
This screening assay measures human TRPC6 (transient receptor potential cation channel, subfamily C, member 6) ion channel activation via addition either of the commercially available DAG ligand analogue OAG (1-oleoyl-2-acetyl-sn-glycerol) or of the TRPC6 agonist 1-[1-(4,5,6,7,8-pentahydrocyclohepta[2,1-d]thiophen-2-ylcarbonyl)-4-piperidyl]-3-hydrobenzimidazol-2-one (GSK1702934A). The assay utilizes a fluorescent calcium sensor 4-(6-Acetoxymethoxy-2,7-difluoro-3-oxo-9-xanthenyl)-4′-methyl-2,2′-(ethylenedioxy)dianiline-N,N,N′,N′-tetraacetic acid tetrakis(acetoxymethyl) ester (Fluo4/AM) dye from Molecular Devices. Changes (increases) in intracellular calcium concentration as measured by the fluorescent signal increase provide a measurement of channel activity.
The commercially available HEK293/TREx line (Invitrogen) was stably transfected with a human TRPC6 construct and screened by conventional calcium imaging to find clones with human TRPC6 expression following stimulation with 1 μg/ml tetracycline. These cells were maintained in the growth medium recommended by the manufacturer supplemented with 100 μg/ml hygromycin to promote retention of the human TRPC6 construct. After growing to near confluency, cells were plated at a density of ^˜35,000 cells/well in 384 well CellBind plates (Corning) in the presence of 1 μg/ml tetracycline, and allowed to grow for 20-30 hrs. A nearly confluent monolayer resulted. Growth media was removed from the wells and cells were then loaded with […] Fluo4/AM diluted in Ringer's Solution (6.5 g NaCl, 0.42 g KCl, 0.25 g CaCl2) and 0.2 g of sodium bicarbonate; pH 7.4) supplemented with 1% Pluronic F-127 to a final concentration of 0.5 μM and incubated for 60 min, at room temperature. Dye solution was then removed from the cells by inverting plates with a sharp flick, and replaced with 25 μl Ringer's. Following ^˜0.5 hour for recovery from loading, cells were assayed using the Hamamatsu FDSS 6000 system, which permitted illumination at 485 nm. Frames were acquired at a rate of 0.2 Hz. During the assay, the plates were continuously vortexed, with pipette mixing of wells following addition of each reagent. For the screening assay, 26 μl of a diluted compound stock (at 50 μM) was added to each well for 2 minutes following the collection of a short (4 frame) baseline. 13 μl of agonist solution consisting of 125 nM GSK1702934A diluted in high-Ca2+Ringer solution (containing 90 mM Ca2+) was then added to each well, achieving a final concentration of 20 mM Ca2+ and 10 μM test compound. Data was collected for ^˜3 minutes following addition of high Ca2+Ringer. The fluorescent intensity observed at a particular timepoint for each well was divided by the initial fluorescent intensity for that well and the overall response was determined by averaging the resulting fluorescent ratio of the last 4 frames acquired during the experiment excepting the final frame. Negative and Positive controls were included on each plate. Negative controls wells consisted of HEK293/TREx TRPC6 cells exposed to assay buffer and agonist solution, but no test compound. Positive control consisted of wells consisted of HEK293/TREx TRPC6 cells exposed to 25 μM 3-[(2-chlorophenoxy)methyl]phenyl piperidyl ketone (Chembridge) diluted in Ringer's solution and agonist solution. These controls defined zero percent and 100 percent block respectively, and intensity of each well was normalized to these values.
Compounds were tested in triplicate at all concentrations. Standard software was used to fit IC50 curves.

IC50 [nM] | Structure (SMILES)
1700 | Cc1ccc(-c2ccc(C(=O)N3CCC(c4ccc(N)nn4)CC3)cc2)cc1 [Compound 3, [4-(6-Amino-pyridazin-3-yl)-piperidin-1-yl]-(4′-methyl-biphenyl-4-yl)-methanone]
1100 | COc1cc(C(=O)N2CCC(c3ccc(N)nn3)CC2)ccc1-c1cnc(OC(C)C)nc1 [Compound 62, [4-(6-Amino-pyridazin-3-yl)-piperidin-1-yl]-[4-(2-isopropoxy-pyrimidin-5-yl)-3-methoxy-phenyl]-methanone]
130 | COc1cc(C(=O)N2CCC(c3ccc(N)nn3)CC2)ccc1-c1ccc(OCC2(CF)CC2)nc1 [Compound 80, [4-(6-Amino-pyridazin-3-yl)-piperidin-1-yl]-{4-[6-(1-fluoromethyl-cyclopropylmethoxy)-pyridin-3-yl]-3-methoxy-phenyl}-methanone]
1700 | CCc1ccc(-c2cnc(C(=O)N3CCC(c4ccc(N)nn4)CC3)cc2OC)cn1 [Compound 44, [4-(6-Amino-pyridazin-3-yl)-piperidin-1-yl]-(6′-ethyl-4-methoxy-[3,3′]bipyridinyl-6-yl)-methanone]
180 | COc1cc(C(=O)N2CCC(c3ccc(N)nn3)CC2)ncc1-c1ccc(C(F)F)cc1 [Compound 38, [4-(6-Amino-pyridazin-3-yl)-piperidin-1-yl]-[5-(4-difluoromethyl-phenyl)-4-methoxy-pyridin-2-yl]-methanone]
460 | COc1cc(C(=O)N2CCC(c3ccc(N)nn3)CC2)ccc1-c1ccc(O[C@@H](C)C2CC2)nc1 [Compound 78, [4-(6-Amino-pyridazin-3-yl)-piperidin-1-yl]-{4-[6-((S)-1-cyclopropyl-ethoxy)-pyridin-3-yl]-3-methoxy-phenyl}-methanone]
88 | COc1cc(-c2cnc(C(=O)N3CCC(c4ccc(N)nn4)CC3)cc2OC)ccc1OC(F)(F)F [Compound 13]
390 | COc1cc(C(=O)N2CCN(c3cnc(N)cc3OC)C[C@H]2CO)ncc1-c1ccc(C(F)(F)F)cc1 [Compound 101, [(S)-4-(6-Amino-4-methoxy-pyridin-3-yl)-2-hydroxymethyl-piperazin-1-yl]-[4-methoxy-5-(4-trifluoromethyl-phenyl)-pyridin-2-yl]-methanone]
930 | COc1cc(C(=O)N2CCC(c3ccc(N)nn3)CC2)ccc1-c1ccccc1 [Compound 60, [4-(6-Amino-pyridazin-3-yl)-piperidin-1-yl]-(2-methoxy-biphenyl-4-yl)-methanone]
200 | COC[C@H]1CN(c2cnc(N)cc2OC)CCN1C(=O)c1cc(OC)c(-c2ccc(F)cc2)cn1 [Compound 98, [(R)-4-(6-Amino-4-methoxy-pyridin-3-yl)-2-methoxymethyl-piperazin-1-yl]-[5-(4-fluoro-phenyl)-4-methoxy-pyridin-2-yl]-methanone]
69 | COc1cc(C(=O)N2CCC(c3ccc(N)nc3)CC2)ncc1-c1ccc(C(F)(F)F)nc1 [Compound 97, (6-Amino-3′,4′,5′,6′-tetrahydro-2′H-[3,4′]bipyridinyl-1′-yl)-(4-methoxy-6′-trifluoromethyl-[3,3′]bipyridinyl-6-yl)-methanone]
320 | CCOc1ccc(-c2cnc(C(=O)N3CCC(c4ccc(N)nn4)CC3)cc2OC)cc1 [Compound 37, [4-(6-Amino-pyridazin-3-yl)-piperidin-1-yl]-[5-(4-ethoxy-phenyl)-4-methoxy-pyridin-2-yl]-methanone]
190 | COc1cc(C(=O)N2CCC(c3ccc(N)nn3)CC2)ncc1-c1ccc(OCC2CC2)nc1 [Compound 50, [4-(6-Amino-pyridazin-3-yl)-piperidin-1-yl]-(6′-cyclopropylmethoxy-4-methoxy-[3,3′]bipyridinyl-6-yl)-methanone]
510 | COc1cc(C(=O)N2CCC(c3ccc(N)nn3)CC2)ccc1-c1ccc(OC2CC2)nc1 [Compound 73, [4-(6-Amino-pyridazin-3-yl)-piperidin-1-yl]-[4-(6-cyclopropoxy-pyridin-3-yl)-3-methoxy-phenyl]-methanone]
6700 | Nc1ccc(C2CCN(C(=O)c3ccc(-c4cccc(F)c4)cc3)CC2)nn1 [Compound 8, [4-(6-Amino-pyridazin-3-yl)-piperidin-1-yl]-(3′-fluoro-biphenyl-4-yl)-methanone]
130 | COc1cc(C(=O)N2CCC(c3cnc(N)cc3OC)CC2)ncc1-c1ccc(C(F)(F)F)cc1 [Compound 84, (6-Amino-4-methoxy-3′,4′,5′,6′-tetrahydro-2′H-[3,4′]bipyridinyl-1′-yl)-[4-methoxy-5-(4-trifluoromethyl-phenyl)-pyridin-2-yl]-methanone]
190 | COc1ccc(-c2cnc(C(=O)N3CCC(c4ccc(N)nn4)CC3)cc2OC)cc1 [Compound 28, [4-(6-Amino-pyridazin-3-yl)-piperidin-1-yl]-[4-methoxy-5-(4-methoxy-phenyl)-pyridin-2-yl]-methanone]
390 | COc1cc(C(=O)N2CCC(c3ccc(N)nn3)CC2)ncc1-c1ccc2c(c1)OCC2 [Compound 16, [4-(6-Amino-pyridazin-3-yl)-piperidin-1-yl]-[5-(2,3-dihydro-benzofuran-6-yl)-4-methoxy-pyridin-2-yl]-methanone]
36 | COc1cc(C(=O)N2CCC(c3ccc(N)nn3)CC2)ncc1-c1ccc(C(F)(F)F)cc1 [Compound 27, 6-(1-{4-Methoxy-5-[4-(trifluoromethyl)phenyl]pyridine-2-carbonyl}piperidin-4-yl)pyridazin-3-amine]
8700 | CC(C)Cc1ccc(-c2ccc(C(=O)N3CCC(c4ccc(N)nn4)CC3)cc2)cc1 [Compound 83, [4-(6-Amino-pyridazin-3-yl)-piperidin-1-yl]-(4′-isobutyl-biphenyl-4-yl)-methanone]
320 | COc1cc(C(=O)N2CCN(c3cnc(N)cc3OC)C[C@@H]2CO)ncc1-c1ccccc1 [Compound 96, [(R)-4-(6-Amino-4-methoxy-pyridin-3-yl)-2-hydroxymethyl-piperazin-1-yl]-(4-methoxy-5-phenyl-pyridin-2-yl)-methanone]
3400 | Nc1ccc(C2CCN(C(=O)c3ccc(-c4ccc(F)cc4)cc3)CC2)nn1 [Compound 7, [4-(6-Amino-pyridazin-3-yl)-piperidin-1-yl]-(4′-fluoro-biphenyl-4-yl)-methanone]

Structure (SMILES) | IC50 [nM]
CC[C@@H](C)Oc1ccc(-c2ccc(C(=O)N3CCC(c4ccc(N)nn4)CC3)cc2OC)cn1 [Compound 74, [4-(6-Amino-pyridazin-3-yl)-piperidin-1-yl]-{4-[6-((R)-sec-butoxy)-pyridin-3-yl]-3-methoxy-phenyl}-methanone] | 140
